The species named for assay [1] is Bos taurus. In words: Induction of bovine brain tubulin polymerization at 5 uM measured every minute for 1 hr by spectrophotometric method.
Assay [2] concerns HCC1428. Nature of the assay: Cytotoxicity against human HCC1428 cells assessed as decrease in cell viability at 1 uM after 60 hrs by xCELLigence system. It counts as functional, cell-based.
Assay [3] is filed under the species Bos taurus. Nature of the assay: Inhibition of bovine brain tubulin polymerization at 5 uM measured every minute for 1 hr by spectrophotometric method.
Assay [4] is described as follows: Cytotoxicity against human HCC1428 cells assessed as decrease in cell viability after 48 hrs by MTT assay. Type of assay: functional, cell-based. As to conditions: HCC1428, 48 h.
A short description of assay [5]: Cytotoxicity against human HT-29 cells assessed as decrease in cell viability after 48 hrs by MTT assay. It counts as functional, cell-based. As to conditions: HT-29, 48 h.
Assay [6] in a line: Cytotoxicity against docetaxel-resistant human PC3 cells assessed as decrease in cell viability after 48 hrs by MTT assay. Type of assay: functional, cell-based. As to conditions: PC-3, 48 h.
A short description of assay [7]: cells. The following applies: Homo sapiens, HeLa, 48 h.
Description: Cytotoxicity against human HeLa cells assessed as decrease in cell viability after 48 hrs by MTT assay

Structures can show the parent of a compound that is named as a salt. Calls of active or inactive are those of the source. No cut-off for these calls is given here.

`CC(=O)O[C@H]1C(=O)[C@@]2(C)[C@H]([C@H](OC(=O)c3ccccc3)[C@]3(O)C[C@H](OC(=O)[C@H](O)[C@@H](NC(=O)c4ccccc4)c4ccccc4)C(C)=C1C3(C)C)[C@]1(OC(C)=O)CO[C@@H]1C[C@@H]2O`: the outcome in assay [1] was Active.
Consider `CC[C@]1(O)C[C@H]2CN(CCc3c([nH]c4ccccc34)[C@@](C(=O)OC)(c3cc4c(cc3OC)N(C=O)[C@H]3[C@@](O)(C(=O)OC)[C@H](OC(C)=O)[C@]5(CC)C=CCN6CC[C@]43[C@@H]65)C2)C1`, for which, in assay [2], the result was Active. Moreover, the inhibition entry in assay [3] is “Active”.
As a reminder, the IC50 is the concentration that gives 50% inhibition. For the compound `COc1cccc2c1C(=O)c1c(O)c3c(c(O)c1C2=O)C[C@@](O)(C(=O)CO)C[C@@H]3O[C@H]1C[C@H](N)[C@H](O)[C@H](C)O1` [DOXORUBICIN HYDROCHLORIDE], the IC50 in assay [4] was found to be 1560 nM; in assay [5] it was 1460 nM; in assay [6], 15200 nM; in assay [7], 1060 nM.
